These results are taken from ChEMBL document CHEMBL1144049, “Functional assay and structure-activity relationships of new third-generation P-glycoprotein inhibitors” (Bioorg Med Chem, 2008).

Experiment [1] concerns the target ATP-dependent translocase ABCB1 (Mus musculus, UniProt P06795). Put plainly: Inhibition of mouse Pgp in EMT6/AR1.0 cells after 1 hr by daunorubicin accumulation assay. The class given is cell-based.
Experiment [2] addresses T1, ATP-dependent translocase ABCB1 (Homo sapiens, UniProt P08183). Put plainly: Inhibition of human Pgp in A2780 cells after 30 mins by calcein AM assay. The class given is cell-based.
Experiment [3] addresses T1, ATP-dependent translocase ABCB1. Put plainly: Inhibition of human Pgp in A2780 cells after 30 mins by Hoechst 33342 assay. Format: cell-based.
For experiment [4] the target is unchanged.
Description: Inhibition of Pgp by daunorubicin accumulation assay

Chain of ATP-dependent translocase ABCB1 (Mus musculus, UniProt P06795) (P06795 whole entry): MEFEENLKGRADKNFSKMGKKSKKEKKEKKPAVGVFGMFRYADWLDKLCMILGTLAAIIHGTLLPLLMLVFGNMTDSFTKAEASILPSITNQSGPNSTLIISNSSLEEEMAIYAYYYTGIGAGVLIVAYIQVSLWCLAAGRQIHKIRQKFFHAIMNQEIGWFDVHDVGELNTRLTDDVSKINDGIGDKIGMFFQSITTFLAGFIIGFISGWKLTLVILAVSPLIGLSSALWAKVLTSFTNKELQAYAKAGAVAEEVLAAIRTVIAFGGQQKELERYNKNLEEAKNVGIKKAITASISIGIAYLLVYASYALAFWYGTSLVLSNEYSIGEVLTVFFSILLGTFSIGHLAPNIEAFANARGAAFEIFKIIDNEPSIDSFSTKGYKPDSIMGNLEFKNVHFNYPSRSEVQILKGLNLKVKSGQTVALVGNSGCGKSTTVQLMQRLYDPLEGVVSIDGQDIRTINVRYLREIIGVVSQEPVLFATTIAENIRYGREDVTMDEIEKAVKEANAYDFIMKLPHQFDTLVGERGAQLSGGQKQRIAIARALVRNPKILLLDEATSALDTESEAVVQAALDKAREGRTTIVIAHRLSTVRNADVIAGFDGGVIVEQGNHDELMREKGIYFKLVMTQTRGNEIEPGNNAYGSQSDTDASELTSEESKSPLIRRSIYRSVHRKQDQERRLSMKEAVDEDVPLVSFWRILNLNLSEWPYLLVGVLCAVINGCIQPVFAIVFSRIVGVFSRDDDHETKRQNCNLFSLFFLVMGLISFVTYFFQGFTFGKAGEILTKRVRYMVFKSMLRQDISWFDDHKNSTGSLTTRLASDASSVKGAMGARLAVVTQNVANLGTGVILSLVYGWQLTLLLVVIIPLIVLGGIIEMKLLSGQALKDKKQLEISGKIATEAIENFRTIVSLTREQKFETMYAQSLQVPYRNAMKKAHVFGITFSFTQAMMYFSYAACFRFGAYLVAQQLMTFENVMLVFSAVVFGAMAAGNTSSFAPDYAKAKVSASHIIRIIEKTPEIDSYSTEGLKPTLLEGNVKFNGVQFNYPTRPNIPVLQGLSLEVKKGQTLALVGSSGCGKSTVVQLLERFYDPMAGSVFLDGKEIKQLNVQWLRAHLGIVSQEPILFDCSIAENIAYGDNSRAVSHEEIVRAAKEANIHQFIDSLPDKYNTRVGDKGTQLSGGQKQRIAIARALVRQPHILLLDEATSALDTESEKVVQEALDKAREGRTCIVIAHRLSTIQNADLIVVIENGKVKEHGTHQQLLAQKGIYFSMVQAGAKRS
T1 sequence (P08183 whole entry): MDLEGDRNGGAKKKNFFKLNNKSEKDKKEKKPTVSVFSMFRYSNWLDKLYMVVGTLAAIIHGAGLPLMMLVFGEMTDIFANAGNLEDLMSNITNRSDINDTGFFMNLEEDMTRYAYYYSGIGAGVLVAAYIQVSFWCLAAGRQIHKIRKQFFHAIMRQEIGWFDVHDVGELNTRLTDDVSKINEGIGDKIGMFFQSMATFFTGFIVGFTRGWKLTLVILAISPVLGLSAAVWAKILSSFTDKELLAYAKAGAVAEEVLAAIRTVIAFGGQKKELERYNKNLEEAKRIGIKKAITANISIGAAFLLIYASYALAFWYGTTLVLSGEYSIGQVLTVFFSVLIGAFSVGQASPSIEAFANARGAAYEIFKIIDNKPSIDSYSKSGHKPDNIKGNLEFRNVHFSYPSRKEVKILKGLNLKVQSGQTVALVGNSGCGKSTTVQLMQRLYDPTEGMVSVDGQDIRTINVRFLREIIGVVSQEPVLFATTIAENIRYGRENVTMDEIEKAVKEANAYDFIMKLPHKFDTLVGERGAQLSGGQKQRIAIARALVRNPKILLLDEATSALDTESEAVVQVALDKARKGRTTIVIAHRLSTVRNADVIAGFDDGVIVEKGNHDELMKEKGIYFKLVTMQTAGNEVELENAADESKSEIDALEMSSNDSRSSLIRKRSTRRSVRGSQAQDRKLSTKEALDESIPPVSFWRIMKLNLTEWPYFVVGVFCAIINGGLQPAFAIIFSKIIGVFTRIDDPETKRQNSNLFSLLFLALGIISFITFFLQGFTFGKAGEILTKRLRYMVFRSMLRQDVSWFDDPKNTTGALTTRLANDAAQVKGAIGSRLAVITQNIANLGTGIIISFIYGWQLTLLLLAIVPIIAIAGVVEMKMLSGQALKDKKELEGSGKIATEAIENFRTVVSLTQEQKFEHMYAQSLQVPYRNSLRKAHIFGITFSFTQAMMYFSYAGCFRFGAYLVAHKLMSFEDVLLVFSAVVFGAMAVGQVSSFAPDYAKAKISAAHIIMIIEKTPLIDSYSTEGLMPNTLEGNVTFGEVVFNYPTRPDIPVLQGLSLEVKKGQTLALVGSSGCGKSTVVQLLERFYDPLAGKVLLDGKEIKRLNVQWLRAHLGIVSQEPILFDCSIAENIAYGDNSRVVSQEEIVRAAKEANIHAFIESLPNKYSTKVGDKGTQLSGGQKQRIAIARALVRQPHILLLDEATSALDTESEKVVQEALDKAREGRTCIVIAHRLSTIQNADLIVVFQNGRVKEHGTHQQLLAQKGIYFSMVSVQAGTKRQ

With `COc1cc2c(cc1OC)CN(CCc1ccc(NC(=O)c3ccccc3NC(=O)c3ccc(C)cc3)cc1)CC2`, the IC50 in experiment [1] is 260 nM; in experiment [2] it was 692 nM; in experiment [3], 525 nM.

For `COc1cc2c(cc1OC)CN(CCc1ccc(NC(=O)c3cccc(Br)c3)cc1)CC2`, the values for the half-inhibitory concentration (IC50) in experiment [2] and in experiment [3] were 2290 nM and 3240 nM, respectively.

Take `O=C(Nc1ccccc1C(=O)Nc1ccc(CCN2CCc3ccccc3C2)cc1)c1cnc2ccccc2c1`: the IC50 was 320 nM in experiment [1] and 447 nM in experiment [2].

As to `COc1cc2c(cc1OC)CN(CCc1ccc(NC(=O)c3ccc([N+](=O)[O-])cc3)cc1)CC2`, the IC50 was 1100 nM in experiment [2] and 1380 nM in experiment [3].

For `COc1cc2c(cc1OC)CN(CCc1ccc(NC(=O)c3cccnc3)cc1)CC2`, the IC50 is 4170 nM in experiment [2] and 3160 nM in experiment [3].

With `COc1cc2c(cc1OC)CN(CCc1ccc(NC(=O)c3ccccc3NC(=O)c3cnc4ccccc4c3)cc1)CC2`, the half-maximal inhibitory concentration (IC50) in experiment [1] was 50 nM; in experiment [4] it was 87 nM; in experiment [2], 240 nM; in experiment [3] it was 166 nM.

For `COc1cc2c(cc1OC)CN(CCc1ccc(NC(=O)c3cnc4ccccc4n3)cc1)CC2`, the results for the half-inhibitory concentration (IC50) in experiment [2] and in experiment [3] were 490 nM and 209 nM, respectively.

As for `COc1cc2c(cc1OC)CN(CCc1ccc(NC(=O)c3ccc4ncccc4c3)cc1)CC2`, the concentration for half-maximal inhibition (IC50) was 724 nM in experiment [2] and 741 nM in experiment [3].

Regarding `COc1cc2c(cc1OC)CN(CCc1ccc(NC(=O)c3cccc4ccccc34)cc1)CC2`, the IC50 in experiment [2] was 1410 nM; in experiment [3], 1860 nM.

As to `Nc1ccc(C(=O)Nc2ccc(CCN3CCc4ccccc4C3)cc2)cc1`, the half-maximal inhibitory concentration (IC50) in experiment [2] is 13500 nM; in experiment [3], 4170 nM.

As to `COc1cc2c(cc1OC)CN(CCc1ccc(NC(=O)c3ccc(N)cc3)cc1)CC2`, the figures for the 50% inhibitory concentration (IC50) in experiment [2] and in experiment [3] were 4070 nM and 7080 nM, respectively.

As to `COc1cc2c(cc1OC)CN(CCc1ccc(NC(=O)c3ccccc3N)cc1)CC2`, the IC50 in experiment [2] is 9120 nM; in experiment [3], 11200 nM.

On to `COc1cc2c(cc1OC)CN(CCc1ccc(NC(=O)c3cc(OC)c(OC)cc3NC(=O)c3cnc4ccccc4c3)cc1)CC2`, for which the values for the IC50 in experiment [1], in experiment [4] and in experiment [3] were 64 nM, 38 nM and 126 nM, respectively.

For the compound `COc1cc2c(cc1OC)CN(CCc1ccc(NC(=O)c3ccccc3NC(=O)c3ccccc3)cc1)CC2`, the IC50 was 300 nM in experiment [1], 250 nM in experiment [4] and 724 nM in experiment [2].

Consider `COc1cc2c(cc1OC)CN(CCc1ccc(NC(=O)c3ccccc3Br)cc1)CC2`, for which the half-inhibitory concentration (IC50) in experiment [2] was 4270 nM; in experiment [3], 3470 nM.

For the compound `COc1cc2c(cc1OC)CN(CCc1ccc(NC(=O)c3ccccc3[N+](=O)[O-])cc1)CC2`, the results for the IC50 in experiment [2] and in experiment [3] were 4790 nM and 5500 nM, respectively.

Turning to `COc1cc2c(cc1OC)CN(CCc1ccc(NC(=O)c3ccc4ccccc4c3)cc1)CC2`, the half-maximal inhibitory concentration (IC50) in experiment [2] and in experiment [3] was 776 nM in each case.

In the case of `COc1cc2c(cc1OC)CN(CCc1ccc(NC(=O)c3ccnc4ccccc34)cc1)CC2`, the values for the IC50 in experiment [2] and in experiment [3] were 2820 nM and 2240 nM, respectively.

In the case of `COc1cc2c(cc1OC)CN(CCc1ccc(NC(=O)c3cnc4ccccc4c3)cc1)CC2`, the IC50 in experiment [2] is 646 nM; in experiment [3] it was 145 nM.

`COc1cc2c(cc1OC)CN(CCc1ccc(NC(=O)c3cc4ccccc4cn3)cc1)CC2`: the IC50 is 851 nM in experiment [2] and 776 nM in experiment [3].

Regarding `O=C(Nc1ccc(CCN2CCc3ccccc3C2)cc1)c1ccccc1[N+](=O)[O-]`, the half-maximal inhibitory concentration (IC50) in experiment [2] was 12300 nM; in experiment [3], 13500 nM.

For `O=C(Nc1ccc(CCN2CCc3ccccc3C2)cc1)c1ccc([N+](=O)[O-])cc1`, the IC50 is 4470 nM in experiment [2] and 5010 nM in experiment [3].

For orientation: IC50 means the point on the concentration scale where inhibition reaches its midpoint.
